Measured values published in patent US20230167058A1, “GPX4 COMPOUNDS AND COMPOSITIONS AND METHODS OF TREATMENT USING SAME” (THE TRUSTEES OF COLUMBIA UNIVERSITY IN THE CITY OF NEW YORK, priority 2020, published 2023).

What was measured:
[1] = tested on: GPX4 protein level in HT-1080 cells; assay: Western blot GPX4 degradation study in HT-1080; type: cell-based, human; conditions: 1 μM RSL3, 1 μM ML162, 10 μM FIN56, 10 h, with 100 μM α-tocopherol
Summary of the method: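 HT-1080 cells were co-treated 10 h with 100 μM α-tocopherol plus compound (RSL3 or ML162 at 1 μM; IKE or FIN56 at 10 μM) or vehicle. RIPA lysates were Western blotted for GPX4, with actin and GAPDH as loading references. Blots were quantified by infrared imaging.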

GPX4^U46C [2] = target: T1, GPX4^U46C (Homo sapiens, UniProt P36969, U73C); assay: Co-crystal structure of GPX4^U46C with inhibitor; type: binding
T1 construct: His6 (N, cleaved yes); made in house; host or cells: E. coli BL21-Gold (DE3), M9 minimal medium with 15NH4Cl
T1 sequence (P36969 33-197 U73C): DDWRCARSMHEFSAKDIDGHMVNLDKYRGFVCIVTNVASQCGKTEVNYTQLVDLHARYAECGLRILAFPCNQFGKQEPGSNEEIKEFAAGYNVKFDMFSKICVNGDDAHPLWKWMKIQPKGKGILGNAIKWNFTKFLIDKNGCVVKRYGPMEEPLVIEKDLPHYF
Method: GPX4^U46C was pre-incubated with the covalent inhibitors before crystallization using the following specifically optimized condition.
RSL3 and ML162 condition: 50 μM GPX4^U46C incubated with 150 μM RSL3 or ML162 in the reaction buffer (20 mM Tris pH 9.0, 100 mM NaCl, 3 mM TCEP, 1.5% DMSO) at 15° C. for 1 hour before transferring to 4° C. overnight. CDS9 condition: 25 μM GPX4^U46C incubated with 2 mM CDS9 in the reaction buffer (100 mM Tris pH 9.0, 300 mM NaCl, 1 mM TCEP, 2% DMSO) at 37° C. for 2 hours before transferring to 4° C. overnight. TMT10 condition: 25 μM GPX4^U46C incubated with 2 mM TMT10 in the reaction buffer (100 mM Tris pH 9.0, 300 mM NaCl, 2% glycerol, 2% DMSO) at 37° C. for 4 hours before transferring to 4° C. overnight. MAC-5576 condition: 50 μM GPX4^U46C protein was incubated with 500 μM MAC-5576 in the reaction buffer (100 mM Tris pH 9.0, 300 mM NaCl, and 3 mM TCEP, 5% DMSO) at RT for 1 hour before transferring to 4° C. overnight.
After confirmation of covalent binding using intact protein MALDI MS analysis, the protein-inhibitor complex were exchanged into crystallization buffer (10 mM Tris pH 8.0, 5 mM TCEP) and concentrated to 5 mg/ml.

GPX4^U46C [3] = target: T1, GPX4^U46C; assay: Thermal shift assay (screen of LOC library); type: binding
Method: To fully utilize the versatility shown by the […] site to accommodate structurally diverse compounds, we applied thermal shift assay to screen 9,719 compounds in the Lead-Optimized-Compound (LOC) library for in vitro binders of GPX4^U46C, which would shift the melting temperature of GPX4^U46C (|ΔTm|>2° C., FIG. 12D) (Kaplan et al. 2015).
Since the binding of small molecules may alter the thermostability of protein, we applied thermal shift assay to screen the LOC library, which determined binding of ligand from the change of the unfolding transition temperature (ΔTm) obtained in the presence of ligands relative to that obtained in the absence of ligands (Kaplan et al. 2015; Lo et al. 2004). For higher throughput purpose, we adapted the assay on 384-well PCR plate. With the assistance of Biomek Automated Liquid Handler (Beckman), 2 μl 10 mM stock solution (in 100% DMSO) of the each compound was transferred from 384-well library plates to 38 μl FPLC buffer (100 mM Tris pH 8.0, 300 mM NaCl, 3 mM TCEP) and mixed in each well of a 384-well mother plate. The compound solution was then dispensed, 12 μl per well, into three 384-well PCR plates. GPX4^U46C protein and Sypro orange were manually added to the plate, with the final concentrations of 5 μM and 5×, respectively, to make a volume of 20 μl per well right before thermal shift analysis of the specific plate. The thermal shift assay was performed on the ViiA 7 Real-Time PCR system (Thermo Fisher) with the thermal protocol: 25° for 15 s, Increase temp to 99° at a rate of 0.05°/sec, 99° for 15 sec. The fluorescence was recorded and analyzed by Protein Thermal Shift™ software. The mean |ΔTm| value for the biological triplicates were calculated and used for hit identification.

GPX4 = target: T2, GPX4 (Homo sapiens, UniProt P36969, U73C); assay: Surface plasmon resonance (SPR); type: binding; conditions: Table 1
T2 sequence (P36969 33-197 U73C): T1 sequence (P36969 33-197 U73C)
Description: These x-ray structures enabled further optimization of current inhibitors and the design of novel inhibitors targeting various binding sites on GPX4. Therefore, we applied a strategy of computer-facilitated design, based on MD simulation (Desmond) and Glide docking (Schrödinger Suite), and experimental high-throughput screening of a lead-optimized compound library of 10,000 compounds (FIGS. 6A-6E). All candidates were first evaluated by thermal denaturation assay and microscale thermophoresis (MST) to validate binding to GPX4 (Table 1). Surface plasmon resonance (SPR) and isothermal titration calorimetry (ITC) were then applied to precisely measure their binding kinetics and affinities, while ^1H-^15N heteronuclear single-quantum coherence (HSQC) NMR spectroscopy informed us of binding sites. We optimized two GPX4-specific activity assays to examine enzymatic inhibitory effects of hit compounds—LC-MS-based substrate/product monitoring and an NADPH-coupled assay. […] Some L880 analogues were also synthesized and tested (Table 2).

Thermal shift (GPX4^U46C [3]; Table 1)	|ΔTm| (GPX4^U46C [3]; thermal shift screening top hit)	SPR (GPX4)	SMILES	degradation of endogenous GPX4 [1]	binding site in co-crystal structure (GPX4^U46C [2])
			COC(=O)c1ccc([C@@H]2c3[nH]c4ccccc4c3C[C@@H](C(=O)OC)N2C(=O)CCl)cc1 [RSL3, (1S, 3R)-RSL3]	significantly promoted degradation of GPX4	bind to cys66
positive	3 °C	positive	COc1cccc2[nH]c(C(=O)n3ccnc3)cc12 [LOC1886]		
